This is an account of results in patent publication US20170121315A1, “HETEROBICYCLICALLY SUBSTITUTED 4-OXOBUTANE ACID DERIVATIVES AND USE THEREOF” (priority 2014, published 2017).

The IC50 is the concentration that inhibits the measured activity by half. Low readings indicate inhibition by little substance, high ones a need for much substance.

Common to all, as to type: biochemical
One test has as its target T1, MMP-9 (Homo sapiens, UniProt P14780).
T1 construct: purchased R&D Systems 911-MP
Description: In vitro MMP-9 inhibition test. The settings on record: human MMP-9. An excerpt: (§1) The MMP-mediated amidolytic cleavage of a suitable peptide substrate leads to an increase in fluorescent light here too. The signal intensity of the fluorescent light is directly proportional to the enzyme activity. The active concentration of a test compound at which half the enzyme is inhibited (50% signal intensity of the fluorescent light) is reported as the IC50 value.
(§2) Recombinant MMP-9 (R&D Systems, 911-MP) is chemically activated in accordance with the manufacturer's instructions using APMA. 1 μl of the test compound to be analysed (as a solution in DMSO, suitable concentrations e.g. 1 nM to 30 μM) is pipetted into 24 μl of activated enzyme (final concentration e.g. 0.1 nM) in reaction buffer (50 mM Tris/HCl pH 7.5, 10 mM CaCl2, 150 mM NaCl, 0.05% Brij®-35) in a white 384-hole microtiter plate (MTP). The enzymatic reaction is started by adding the intramolecularly quenched Mca-Pro-Leu-Gly-Leu-Dpa(Dnp)-Ala-Arg-NH2 substrate (final concentration e.g. 10 μM; R&D Systems, ES-001), so as to result in a total test volume of 50 μl. The course of the MMP-9 reaction is measured by measuring the fluorescence intensity (excitation 320 nm, emission 410 nm) over a suitable period of time (e.g. over 120 min at a temperature of 32° C.).

The target of a further test is T2, MMP-7 (Homo sapiens, UniProt P09237).
T2 construct: purchased R&D Systems 907-MP
T2 sequence (P09237 95-267): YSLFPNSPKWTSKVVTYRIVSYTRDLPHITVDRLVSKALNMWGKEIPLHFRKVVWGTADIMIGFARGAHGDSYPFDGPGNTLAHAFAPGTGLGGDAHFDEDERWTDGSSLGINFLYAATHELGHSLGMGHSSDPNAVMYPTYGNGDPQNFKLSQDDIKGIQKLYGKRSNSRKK
Kind of test: In vitro MMP-7 inhibition test. The settings on record: human MMP-7.
From the text: as §1
as §2, with “MMP-7 (from R&D” for “MMP-9 (R&D”, “907-MP)” for “911-MP)”, “0.5” for “0.1”, “MMP-7” for “MMP-9”

The target of another test is T3, MMP-2 (Homo sapiens, UniProt P08253).
T3 construct: purchased R&D Systems 902-MP
T3 sequence (P08253 110-660): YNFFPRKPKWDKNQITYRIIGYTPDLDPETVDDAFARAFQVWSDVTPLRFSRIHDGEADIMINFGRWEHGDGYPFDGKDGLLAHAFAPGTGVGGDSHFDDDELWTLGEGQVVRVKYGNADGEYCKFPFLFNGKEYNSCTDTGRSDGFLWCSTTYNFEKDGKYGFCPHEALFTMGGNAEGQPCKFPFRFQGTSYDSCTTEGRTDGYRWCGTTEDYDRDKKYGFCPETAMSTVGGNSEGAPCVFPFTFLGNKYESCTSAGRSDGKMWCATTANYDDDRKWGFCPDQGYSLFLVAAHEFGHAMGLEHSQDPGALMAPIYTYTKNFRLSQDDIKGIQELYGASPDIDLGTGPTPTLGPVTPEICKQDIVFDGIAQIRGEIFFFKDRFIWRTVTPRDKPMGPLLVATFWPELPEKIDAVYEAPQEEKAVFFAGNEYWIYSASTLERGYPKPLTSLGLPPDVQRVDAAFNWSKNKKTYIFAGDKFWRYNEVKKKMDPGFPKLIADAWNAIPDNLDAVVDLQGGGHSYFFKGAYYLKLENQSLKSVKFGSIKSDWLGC
Kind of test: In vitro MMP-2 inhibition test. The settings on record: human MMP-2.
From the text: as §1
as §2, with “MMP-2” for “MMP-9”, “902-MP)” for “911-MP)”, “2” for “0.1”

A further test concerns the target T4, MMP-13 (Homo sapiens, UniProt P45452).
T4 construct: purchased R&D Systems 511-MP
Description: In vitro MMP-13 inhibition test. To be noted: human MMP-13.
From the text: as §1
as §2, with “MMP-13” for “MMP-9”, “511-MP)” for “911-MP)”

SMILES strings stand for the structures. Where only a bound is given, the exact number is not on record here.

T1 sequence (P14780 107-707 limits assumed): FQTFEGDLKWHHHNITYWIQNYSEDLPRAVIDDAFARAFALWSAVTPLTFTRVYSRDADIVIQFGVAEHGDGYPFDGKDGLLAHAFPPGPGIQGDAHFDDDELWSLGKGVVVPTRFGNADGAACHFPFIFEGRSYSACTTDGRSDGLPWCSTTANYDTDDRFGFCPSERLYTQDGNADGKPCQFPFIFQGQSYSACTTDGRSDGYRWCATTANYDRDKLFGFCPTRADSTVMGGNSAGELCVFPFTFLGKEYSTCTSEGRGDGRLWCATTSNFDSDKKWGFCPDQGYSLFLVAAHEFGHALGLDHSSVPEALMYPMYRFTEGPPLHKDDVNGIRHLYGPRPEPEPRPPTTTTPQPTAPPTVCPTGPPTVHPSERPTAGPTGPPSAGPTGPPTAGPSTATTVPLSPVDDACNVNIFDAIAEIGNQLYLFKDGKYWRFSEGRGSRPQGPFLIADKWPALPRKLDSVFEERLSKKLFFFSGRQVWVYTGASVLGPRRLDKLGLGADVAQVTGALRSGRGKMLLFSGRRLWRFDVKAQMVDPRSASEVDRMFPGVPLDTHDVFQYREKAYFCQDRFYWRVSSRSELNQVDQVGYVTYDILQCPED

Turning to `O=C(CC(CCn1nnc2ccccc2c1=O)C(=O)O)c1coc2cc(OCCC3CCOCC3)ccc12` (racemic) [Example 74, (+/−)-4-Oxo-2-[2-(4-oxo-1,2,3-benzotriazin-3(4H)-yl)ethyl]-4-{6-[2-(tetrahydro-2H-pyran-4-yl)ethoxy]-1-benzofur-3-yl}butanoic acid], the IC50 on MMP-9 is 180 nM; at MMP-7 it was > 40000 nM; on MMP-2, 20 nM; on MMP-13, 250 nM.
For `O=C(CC(CCn1nnc2ccccc2c1=O)C(=O)O)c1noc2cc(OCC3CCCCC3)ccc12` (racemic) [Example 153, (+/−)-4-[6-(Cyclohexylmethoxy)-1,2-benzoxazol-3-yl]-4-oxo-2-[2-(4-oxo-1,2,3-benzotriazin-3(4H)-yl)ethyl]butanoic acid], in that order: 450 nM, > 40000 nM, 420 nM and 2800 nM.
Regarding `O=C(CC(CCn1nnc2ccccc2c1=O)C(=O)O)c1cc2cc(OCCc3ccc(Cl)cc3)ccc2o1` (racemic) [Example 2, (+/−)-4-{5-[2-(4-Chlorophenyl)ethoxy]-1-benzofur-2-yl}-4-oxo-2-[2-(4-oxo-1,2,3-benzotriazin-3(4H)-yl)ethyl]butanoic acid], the IC50 is 24000 nM against MMP-9, > 40000 nM on MMP-7, 4600 nM against MMP-2 and 2200 nM against MMP-13.
For `O=C(CC(CCn1nnc2ccccc2c1=O)C(=O)O)c1cc2cc(OCc3ccc(C(F)(F)F)cc3)ccc2o1` (racemic) [Example 44, (+/−)-4-Oxo-2-[2-(4-oxo-1,2,3-benzotriazin-3(4H)-yl)ethyl]-4-(5-{[4-(trifluoromethyl)benzyl]oxy}-1-benzofur-2-yl)butanoic acid], in that order: 9900 nM, > 40000 nM, > 40000 nM and 2100 nM.
For `O=C(CC(CCn1nnc2ccccc2c1=O)C(=O)O)c1cc2cc(OCC3CCCCC3)ccc2o1` (racemic) [Example 8, (+/−)-4-[5-(Cyclohexylmethoxy)-1-benzofur-2-yl]-4-oxo-2-[2-(4-oxo-1,2,3-benzotriazin-3(4H)-yl)ethyl]butanoic acid], in that order: 13000 nM, > 40000 nM, > 40000 nM and 22000 nM.
Turning to `CCCCCCCOc1ccc2c(C(=O)CC(CCn3nnc4ccccc4c3=O)C(=O)O)coc2c1` (racemic) [Example 101, (+/−)-4-[6-(Heptyloxy)-1-benzofur-3-yl]-4-oxo-2-[2-(4-oxo-1,2,3-benzotriazin-3(4H)-yl)ethyl]butanoic acid], the half-inhibitory concentration (IC50) on MMP-9 is 420 nM; against MMP-7, > 40000 nM; at MMP-2, 660 nM; against MMP-13 it was 1100 nM.
For `O=C(CC(CCn1nnc2ccccc2c1=O)C(=O)O)c1noc2cc(OCCc3ccccc3)ccc12` (racemic) [Example 144, (+/−)-4-Oxo-2-[2-(4-oxo-1,2,3-benzotriazin-3(4H)-yl)ethyl]-4-[6-(2-phenylethoxy)-1,2-benzoxazol-3-yl]butanoic acid], in that order: 760 nM, > 40000 nM, 730 nM and 1600 nM.
For `CCCCCOc1ccc2c(C(=O)CC(CCn3nnc4ccccc4c3=O)C(=O)O)coc2c1` (single isomer, unassigned) [Example 91, 4-Oxo-2-[2-(4-oxo-1,2,3-benzotriazin-3(4H)-yl)ethyl]-4-[6-(pentyloxy)-1-benzofur-3-yl]butanoic acid], the IC50 against MMP-9 was 41 nM; at MMP-7 it was > 40000 nM; on MMP-2, 96 nM; against MMP-13, 370 nM.
For `O=C(CC(CCn1nnc2ccccc2c1=O)C(=O)O)c1cc2ccc(OCC3CC3)cc2s1` (racemic) [Example 111, (+/−)-4-[6-(Cyclopropylmethoxy)-1-benzothiophen-2-yl]-4-oxo-2-[2-(4-oxo-1,2,3-benzotriazin-3(4H)-yl)ethyl]butanoic acid], in that order: 1100 nM, 4100 nM, 350 nM and 1900 nM.
